Reference: patent publication US20160152607A1, “MALEIC ACID DERIVATIVE, PRODUCTION METHOD FOR SAME, AND ANTI-CANCER COMPOSITION COMPRISING SAME” (Medicinal Bioconvergence Research Center, priority 2013, published 2016)

Legend:
Assay type in all cases: cell-based
H460 cells = experiment: MTT cytotoxicity on lung cancer cells (H460); details: medium with 0.5% serum
Description: H460 cells were dispensed in medium containing 0.5% serum at 1×10^4 per well, and were treated with the compounds. MTT solution (5 mg/mL) was diluted 10-fold, and dispensed at 10 μl per well, followed by culturing for 30 minutes. The precipitate was dissolved in 100 μl of DMSO, and the absorbance was measured using a microplate reader (Sunrise, TECAN) at a wavelength of […].

[1] = Cytotoxicity on normal cell line L929 (cell counting kit-8, WST-8); details: mouse, L929 cells (NCTC clone 929, fibroblast cell line)
Description: (§1) For the normal cell lines, five cell lines, VERO (African green monkey kidney cell line), HFL-1 (human embryonic lung cell line), L929 (NCTC clone 929, mouse fibroblast cell line), NIH 3T3 (mouse embryonic fibroblast cell line), and CHO-K1 (Chinese hamster overy cell line) were used.
(§2) For the cytotoxicity, all the cells were seeded at 1×10^4, and for a generalized test for investigating cell viability, the CC50 value, which is the concentration of a compound killing 50% of cells, was measured by cell counting kit-8 assay using tetrazolium salt named WST-8 displaying a pale yellow color.

[2] = Cytotoxicity on normal cell line VERO (cell counting kit-8, WST-8); details: African green monkey, VERO cells (kidney cell line), read-out: Cytotoxicity CC50 (μM), ERO
Description: as §1, §2

[3] = Cytotoxicity on normal cell line HFL-1 (cell counting kit-8, WST-8); details: human, HFL-1 cells (embryonic lung cell line); HFL-1 normal cell line; read-out: Cytotoxicity CC50 (μM), FL-1
Description: as §1, §2

[4] = Cytotoxicity on normal cell line NIH 3T3 (cell counting kit-8, WST-8); details: mouse, NIH 3T3 cells (embryonic fibroblast cell line); NIH 3T3 normal cell line
Description: as §1, §2

[5] = Cytotoxicity on normal cell line CHO-K1 (cell counting kit-8, WST-8); details: Chinese hamster, CHO-K1 cells (ovary cell line)
Description: as §1, §2

SMILES	Inhibition of proliferation of H460 cells (MTT, FIG. 1) (H460 cells)	CC50 [1]	CC50 [2]	CC50 [3]	CC50 [4]	CC50 [5]
Cc1ccnc(NC(=O)/C=C\C(=O)N2CCCCC2)c1 [Example 1-14, (Z)—N-(4-methylpyridin-2-yl)-4-oxo-4-(piperidin-1-yl)but-2-enamide]	significantly inhibited the proliferation of H460 cells in a dose-dependent manner	–	–	–	–	–
Cc1ccnc(NC(=O)/C=C\C(=O)N2CCOCC2)c1 [Example 1-20, (Z)—N-(4-methylpyridin-2-yl)-4-morpholino-4-oxobut-2-enamide]	significantly inhibited the proliferation of H460 cells in a dose-dependent manner	100 µM	100 µM	100 µM	> 100 µM	> 100 µM
